Legend:
[1] = system: nephrotoxin-type nephritis; assay: Therapeutic effect on nephrotoxin-type nephritis (modified type of Masugi nephritis), proteinuria level; assay type: in vivo; settings: rats
Description: (i) Preparation of anti-rat kidney rabbit serum.
The kidneys of SD male rats weighing about 250-300 g were sufficiently perfused with 0.9% saline. The renal cortical tissue was homogenized with 0.9% saline using a Teflon homogenizer. 4 ml of the homogenate was then suspended into the same volume of Freund's complete adjuvant. 2 ml of the said mixture was given subcutaneously to male rabbits weighing about 3 kg. 4 weeks later, 2 ml of the mixture was given intramuscularly as a booster. At the 5th week, a blood sample was taken. The serum separated by centrifugation at 3,000 rpm for 30 minutes was inactivated by heating at 56° C. for 30 minutes and preserved by freezing until just before use.
(ii) Induction of experimental nephritis (modified type of Masugi nephritis)
Experimental nephritis was induced in groups of 5 male rats weighing about 150-200 g by a single intravenous injection of 1 ml of the anti-kidney serum obtained in the above procedures.
(iii) Evaluation of anti-nephritic effect of drugs.
Drugs were given to a group of 5 rats once a day for 5 consecutive days from the 2nd day before the injection of anti-kidney serum. Each drug was dissolved into 3% sodium bicarbonate solution and given intraperitoneally in a volume of 1 ml/rat. In addition to the above drug-treated nephritic group, the non-treated-nephritic group (control) was set in the experiment. The proteinuria level (total) amount excreted into the urine over a 12 hour period) was measured using turbidometry employing bovine serum albumin as a control by means of sulfosalicylic acid.

[2] = system: complement serum (guinea pig complement); assay: Anticomplementary activity (inhibition of hemolysis of sensitized erythrocytes); assay type: biochemical; settings: 50% hemolysis inhibition, 37° C.
Description: The anticomplementary activity of the test compound was measured according to the test method as described in Experimental Immunochemistry, edited by E. A. Kabat and M. M. Mayer, 2nd ed., Springfield, III: C. C. Thomas (1961) pages 133-240.
A mixture of 1 ml of a 5-fold diluted solution of a Veronal buffer solution containing 1.5×10^-4 M Ca^2+ and 5×10^-4 M Mg^2+ and isotonic gelatin, 1.5 ml of complement serum (guinea pig complement) diluted 400 times with a physiological saline solution and 0.05 ml of a solution of a test compound (in this case, a test compound was dissolved in a physiological saline solution) was incubated at 37° C. for 30 minutes. To the said mixture there was added 0.4 ml of sensitized erythrocytes suspension containing 5×10^8 cells/ml and said mixture was incubated at 37° C. further for 60 minutes. After the incubation, the mixture was centrifuged in 3,000 rpm at 4° C. for 10 minutes.
The results are expressed in Table 1 as the concentration of each drugs inhibiting the hemolysis activity by 50% (IC50).

[3] = 10 mg/kg intraperitoneally once a day for 5 days
[4] = 30 mg/kg intraperitoneally once a day for 5 days

CCCCCCCCCCCCCCCC(=O)OC(CCCCCCCCCCCCCCC)CC(=O)NCC(=O)N[C@@H](CO)C(=O)O (stereo partly drawn) [Example 2, N-[N-(3-hexadecanoyloxyoctadecanoyl)glycyl]-L-serine]
protein uria level, 1st day [1, 3]: 5.9 mg/12 hours | protein uria level, 4th day [1, 3]: 3.7 mg/12 hours | protein uria level, 7th day [1, 3]: 39.6 mg/12 hours | protein uria level, 1st day [1, 4]: 3.5 mg/12 hours | protein uria level, 4th day [1, 4]: 5.5 mg/12 hours | protein uria level, 7th day [1, 4]: 16.5 mg/12 hours | Anticomplementary Activity (IC50) [2]: 0.03 to 0.04 µg/mL
